Data reported in ChEMBL document CHEMBL2086270, “Rational Design, Synthesis, and SAR of a Novel Thiazolopyrimidinone Series of Selective PI3K-beta Inhibitors” (ACS Med Chem Lett, 2012).
Calls of active or inactive are those of the source. The calls are words filed in the database; no cut-off is given here.

What was measured:
[1] = test system: Mus musculus; assay: Toxicity in nude mouse xenografted with human PC3 cells assessed as body weight loss at 100 and 300 mg/kg administered QD for 21 days; format: organism-based, PC-3; design: dose 300 mg/kg; conditions: in vivo, 504 h
[2] = molecular target: T1, Phosphatidylinositol 4,5-bisphosphate 3-kinase catalytic subunit delta isoform (Homo sapiens, UniProt O00329); assay: Inhibition of PI3K delta by continuous TR-FRET assay
T1 sequence (O00329 whole entry): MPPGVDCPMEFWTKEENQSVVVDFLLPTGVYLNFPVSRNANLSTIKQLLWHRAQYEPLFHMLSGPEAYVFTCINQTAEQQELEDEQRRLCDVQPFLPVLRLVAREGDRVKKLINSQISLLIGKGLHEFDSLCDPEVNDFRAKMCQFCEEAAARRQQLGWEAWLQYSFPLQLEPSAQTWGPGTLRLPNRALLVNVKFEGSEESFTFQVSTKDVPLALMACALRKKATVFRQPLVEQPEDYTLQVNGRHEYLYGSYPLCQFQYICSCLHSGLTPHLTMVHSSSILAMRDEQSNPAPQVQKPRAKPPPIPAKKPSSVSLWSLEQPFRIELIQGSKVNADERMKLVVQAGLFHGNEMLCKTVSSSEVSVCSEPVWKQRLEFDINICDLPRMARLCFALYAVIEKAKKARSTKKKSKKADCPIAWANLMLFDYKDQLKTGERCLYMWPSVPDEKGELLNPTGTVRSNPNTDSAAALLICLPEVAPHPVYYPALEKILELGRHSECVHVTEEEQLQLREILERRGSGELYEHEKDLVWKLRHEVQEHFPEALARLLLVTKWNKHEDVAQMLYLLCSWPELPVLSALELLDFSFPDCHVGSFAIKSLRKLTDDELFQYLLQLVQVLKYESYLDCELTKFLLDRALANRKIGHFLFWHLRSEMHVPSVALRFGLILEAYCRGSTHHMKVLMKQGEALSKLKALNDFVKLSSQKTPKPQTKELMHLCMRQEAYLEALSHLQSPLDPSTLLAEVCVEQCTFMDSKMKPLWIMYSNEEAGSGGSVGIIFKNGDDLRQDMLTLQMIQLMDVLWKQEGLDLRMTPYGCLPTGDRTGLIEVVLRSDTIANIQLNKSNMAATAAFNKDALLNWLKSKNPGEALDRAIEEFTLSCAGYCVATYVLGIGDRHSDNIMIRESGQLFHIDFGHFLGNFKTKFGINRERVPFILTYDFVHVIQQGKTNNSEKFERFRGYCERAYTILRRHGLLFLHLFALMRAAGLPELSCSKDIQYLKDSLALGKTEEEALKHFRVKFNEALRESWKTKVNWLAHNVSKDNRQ

[3] = test system: Mus musculus; assay: Inhibition of PI3K beta in human PTEN-deficient PC3 cells xenografted in nude mouse assessed as inhibition of AKT Ser473 phosphorylation at 100 mg/kg at 24 hrs; format: functional; conditions: PC-3, 24 h
[4] = test system: Mus musculus; assay: Inhibition of PI3K beta in human PTEN-deficient PC3 cells xenografted in nude mouse assessed as inhibition of AKT Ser473 phosphorylation at 300 mg/kg at 4 hrs; format: functional; conditions: PC-3, 4 h
[5] = test system: Mus musculus; assay: Inhibition of PI3K beta in human PTEN-deficient PC3 cells xenografted in nude mouse assessed as inhibition of AKT Ser473 phosphorylation at 100 mg/kg at 10 hrs; format: functional; conditions: PC-3, 10 h
[6] = Oral bioavailability in CD mouse at 100 mg/kg; format: ADME, organism-based; conditions: in vivo
[7] = test system: Mus musculus; assay: Dose normalized AUC in CD mouse at 100 mg/kg, po; format: ADME, organism-based; design: dose 100 mg/kg, route oral; conditions: in vivo
[8] = Clearance in CD mouse at 0.3 mg/kg, iv; format: ADME, organism-based; design: dose 0.3 mg/kg, route intravenous; conditions: in vivo
[9] = molecular target: Phosphatidylinositol 4,5-bisphosphate 3-kinase catalytic subunit alpha isoform (Homo sapiens, UniProt P42336); assay: Inhibition of PI3K alpha by continuous TR-FRET assay
[10] = test system: Mus musculus; assay: Inhibition of PI3K beta in human PTEN-deficient PC3 cells xenografted in nude mouse assessed as inhibition of AKT Ser473 phosphorylation at 100 and 300 mg/kg; format: functional, organism-based; design: dose 300 mg/kg; conditions: PC-3, TDE = time-dependent effect
[11] = molecular target: T2, Phosphatidylinositol 4,5-bisphosphate 3-kinase catalytic subunit beta isoform (Homo sapiens, UniProt P42338); assay: Inhibition of PI3K beta in human PTEN-deficient MDA-MB-468 cells assessed as inhibition of Akt Ser473 phosphorylation; format: cell-based
[12] = test system: Mus musculus; assay: Inhibition of PI3K beta in human PTEN-deficient PC3 cells xenografted in nude mouse assessed as inhibition of AKT Ser473 phosphorylation at 100 mg/kg at 1 hr; format: functional; conditions: PC-3, 1 h
[13] = molecular target: T2, Phosphatidylinositol 4,5-bisphosphate 3-kinase catalytic subunit beta isoform; assay: Inhibition of PI3K beta by continuous TR-FRET assay
[14] = test system: Mus musculus; assay: Inhibition of PI3K beta in human PTEN-deficient PC3 cells xenografted in nude mouse assessed as inhibition of AKT Ser473 phosphorylation at 300 mg/kg at 2 hrs; format: functional; conditions: PC-3, 2 h
[15] = test system: Mus musculus; assay: Inhibition of PI3K beta in human PTEN-deficient PC3 cells xenografted in nude mouse assessed as inhibition of AKT Ser473 phosphorylation at 100 mg/kg at 4 hrs; format: functional; conditions: PC-3, 4 h
[16] = test system: Mus musculus; assay: Inhibition of PI3K beta in human PTEN-deficient PC3 cells xenografted in nude mouse assessed as inhibition of AKT Ser473 phosphorylation at 100 mg/kg at 6 hrs; format: functional; conditions: PC-3, 6 h
[17] = test system: Mus musculus; assay: Inhibition of PI3K beta in human PTEN-deficient PC3 cells xenografted in nude mouse assessed as inhibition of AKT Ser473 phosphorylation at 300 mg/kg at 8 hrs; format: functional; conditions: PC-3, 8 h
[18] = test system: Mus musculus; assay: Inhibition of PI3K beta in human PTEN-deficient PC3 cells xenografted in nude mouse assessed as inhibition of AKT Ser473 phosphorylation at 100 mg/kg at 8 hrs; format: functional; conditions: PC-3, 8 h
[19] = test system: Mus musculus; assay: Inhibition of PI3K beta in human PTEN-deficient PC3 cells xenografted in nude mouse assessed as inhibition of AKT Ser473 phosphorylation at 300 mg/kg at 6 hrs; format: functional; conditions: PC-3, 6 h
[20] = test system: MDA-MB-468; assay: Antiproliferative activity against PTEN-deficient human MDA-MB-468 cells; format: functional
[21] = test system: Nucleic Acid; assay: Ratio of drug uptake in tumor at 300 mg/kg to drug uptake in tumor at 100 mg/kg in nude mouse bearing PC3 cells; format: functional, organism-based; conditions: Neoplasm, PC-3
[22] = Half life in CD mouse at 0.3 mg/kg, iv; format: ADME, organism-based; design: dose 0.3 mg/kg, route intravenous; conditions: in vivo
[23] = test system: Mus musculus; assay: Inhibition of PI3K beta in human PTEN-deficient PC3 cells xenografted in nude mouse assessed as inhibition of AKT Ser473 phosphorylation at 300 mg/kg at 10 hrs; format: functional; conditions: PC-3, 10 h
[24] = test system: Mus musculus; assay: Inhibition of PI3K beta in human PTEN-deficient PC3 cells xenografted in nude mouse assessed as inhibition of AKT Ser473 phosphorylation at 100 mg/kg at 2 hrs; format: functional; conditions: PC-3, 2 h
[25] = test system: Blood; assay: Ratio of drug uptake in blood at 300 mg/kg to drug uptake in blood at 100 mg/kg in nude mouse bearing PC3 cells; format: functional, PC-3
[26] = test system: Mus musculus; assay: Inhibition of PI3K beta in human PTEN-deficient PC3 cells xenografted in nude mouse assessed as inhibition of AKT Ser473 phosphorylation at 300 mg/kg at 1 hr; format: functional; conditions: PC-3, 1 h
[27] = test system: Mus musculus; assay: Inhibition of PI3K beta in human PTEN-deficient PC3 cells xenografted in nude mouse assessed as inhibition of AKT Ser473 phosphorylation at 300 mg/kg at 24 hrs; format: functional; conditions: PC-3, 24 h
[28] = test system: PC-3; assay: Antitumor activity against human PC3 cells xenografted in nude mouse assessed as tumor growth inhibition at 100 and 300 mg/kg administered QD for 21 days relative to vehicle-treated control; format: functional, organism-based; design: dose 300 mg/kg
[29] = Volume of distribution at steady state in CD mouse at 0.3 mg/kg, iv; format: ADME, organism-based; design: dose 0.3 mg/kg, route intravenous; conditions: in vivo, read-out: Vdss
[30] = molecular target: Phosphatidylinositol 4,5-bisphosphate 3-kinase catalytic subunit gamma isoform (Homo sapiens, UniProt P48736); assay: Inhibition of PI3K gamma by continuous TR-FRET assay
Chain of Phosphatidylinositol 4,5-bisphosphate 3-kinase catalytic subunit gamma isoform (P48736 whole entry, canonical isoform): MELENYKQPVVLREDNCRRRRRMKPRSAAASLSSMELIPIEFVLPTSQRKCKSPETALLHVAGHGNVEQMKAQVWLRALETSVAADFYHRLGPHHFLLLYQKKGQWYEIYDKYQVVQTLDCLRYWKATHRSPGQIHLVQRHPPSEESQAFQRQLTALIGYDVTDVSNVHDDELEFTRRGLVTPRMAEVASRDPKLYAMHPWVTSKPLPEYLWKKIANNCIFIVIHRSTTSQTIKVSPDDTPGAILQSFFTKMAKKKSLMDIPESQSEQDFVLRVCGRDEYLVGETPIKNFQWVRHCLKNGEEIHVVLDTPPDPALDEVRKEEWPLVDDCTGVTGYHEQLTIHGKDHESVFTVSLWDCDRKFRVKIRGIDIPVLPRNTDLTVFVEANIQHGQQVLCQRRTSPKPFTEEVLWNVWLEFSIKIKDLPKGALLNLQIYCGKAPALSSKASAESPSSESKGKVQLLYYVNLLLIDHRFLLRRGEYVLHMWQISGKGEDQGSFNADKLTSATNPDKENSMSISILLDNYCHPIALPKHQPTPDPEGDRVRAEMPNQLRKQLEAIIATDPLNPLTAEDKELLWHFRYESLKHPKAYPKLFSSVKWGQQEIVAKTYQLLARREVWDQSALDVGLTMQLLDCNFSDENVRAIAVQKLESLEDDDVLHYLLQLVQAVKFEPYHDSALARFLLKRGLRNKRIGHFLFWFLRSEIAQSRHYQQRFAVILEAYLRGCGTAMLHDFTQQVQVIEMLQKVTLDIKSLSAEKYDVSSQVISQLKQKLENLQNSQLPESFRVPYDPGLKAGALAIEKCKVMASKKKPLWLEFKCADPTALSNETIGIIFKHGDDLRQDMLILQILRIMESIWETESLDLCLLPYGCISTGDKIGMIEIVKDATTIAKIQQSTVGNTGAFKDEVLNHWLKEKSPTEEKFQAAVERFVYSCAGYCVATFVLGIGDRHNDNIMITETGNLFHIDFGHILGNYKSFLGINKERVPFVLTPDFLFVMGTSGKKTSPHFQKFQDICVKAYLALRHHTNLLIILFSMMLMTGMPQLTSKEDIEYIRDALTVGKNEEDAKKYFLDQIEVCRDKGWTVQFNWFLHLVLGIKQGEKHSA

T2 sequence (P42338 whole entry, canonical isoform): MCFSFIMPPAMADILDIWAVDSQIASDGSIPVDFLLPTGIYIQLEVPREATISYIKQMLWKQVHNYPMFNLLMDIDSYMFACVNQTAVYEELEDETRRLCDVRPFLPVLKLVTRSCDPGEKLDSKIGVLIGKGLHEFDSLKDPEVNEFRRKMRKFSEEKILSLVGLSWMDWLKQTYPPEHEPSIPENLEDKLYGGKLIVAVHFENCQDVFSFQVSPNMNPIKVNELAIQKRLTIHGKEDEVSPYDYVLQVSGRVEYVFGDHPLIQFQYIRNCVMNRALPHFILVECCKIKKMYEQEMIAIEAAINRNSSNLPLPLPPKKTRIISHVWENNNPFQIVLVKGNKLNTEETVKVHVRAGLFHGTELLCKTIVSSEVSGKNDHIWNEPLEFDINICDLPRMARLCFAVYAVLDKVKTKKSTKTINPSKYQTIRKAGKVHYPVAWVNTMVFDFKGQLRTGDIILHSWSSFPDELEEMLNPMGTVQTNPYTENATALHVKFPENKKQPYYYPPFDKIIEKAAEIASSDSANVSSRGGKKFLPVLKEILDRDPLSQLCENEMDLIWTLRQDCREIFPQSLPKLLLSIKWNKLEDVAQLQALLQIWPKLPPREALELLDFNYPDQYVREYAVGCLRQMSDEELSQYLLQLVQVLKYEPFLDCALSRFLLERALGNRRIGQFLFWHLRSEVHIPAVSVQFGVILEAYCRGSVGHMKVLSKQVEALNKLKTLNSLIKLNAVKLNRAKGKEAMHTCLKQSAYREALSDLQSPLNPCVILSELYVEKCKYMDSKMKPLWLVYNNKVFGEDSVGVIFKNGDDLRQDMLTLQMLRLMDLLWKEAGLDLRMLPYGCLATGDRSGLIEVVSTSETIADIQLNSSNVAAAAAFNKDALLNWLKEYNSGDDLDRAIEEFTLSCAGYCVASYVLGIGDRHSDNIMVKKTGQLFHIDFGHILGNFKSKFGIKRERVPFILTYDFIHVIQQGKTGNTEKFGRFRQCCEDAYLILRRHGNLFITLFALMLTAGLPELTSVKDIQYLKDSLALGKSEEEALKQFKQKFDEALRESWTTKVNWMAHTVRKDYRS
Chain of Phosphatidylinositol 4,5-bisphosphate 3-kinase catalytic subunit alpha isoform (P42336 whole entry, canonical isoform): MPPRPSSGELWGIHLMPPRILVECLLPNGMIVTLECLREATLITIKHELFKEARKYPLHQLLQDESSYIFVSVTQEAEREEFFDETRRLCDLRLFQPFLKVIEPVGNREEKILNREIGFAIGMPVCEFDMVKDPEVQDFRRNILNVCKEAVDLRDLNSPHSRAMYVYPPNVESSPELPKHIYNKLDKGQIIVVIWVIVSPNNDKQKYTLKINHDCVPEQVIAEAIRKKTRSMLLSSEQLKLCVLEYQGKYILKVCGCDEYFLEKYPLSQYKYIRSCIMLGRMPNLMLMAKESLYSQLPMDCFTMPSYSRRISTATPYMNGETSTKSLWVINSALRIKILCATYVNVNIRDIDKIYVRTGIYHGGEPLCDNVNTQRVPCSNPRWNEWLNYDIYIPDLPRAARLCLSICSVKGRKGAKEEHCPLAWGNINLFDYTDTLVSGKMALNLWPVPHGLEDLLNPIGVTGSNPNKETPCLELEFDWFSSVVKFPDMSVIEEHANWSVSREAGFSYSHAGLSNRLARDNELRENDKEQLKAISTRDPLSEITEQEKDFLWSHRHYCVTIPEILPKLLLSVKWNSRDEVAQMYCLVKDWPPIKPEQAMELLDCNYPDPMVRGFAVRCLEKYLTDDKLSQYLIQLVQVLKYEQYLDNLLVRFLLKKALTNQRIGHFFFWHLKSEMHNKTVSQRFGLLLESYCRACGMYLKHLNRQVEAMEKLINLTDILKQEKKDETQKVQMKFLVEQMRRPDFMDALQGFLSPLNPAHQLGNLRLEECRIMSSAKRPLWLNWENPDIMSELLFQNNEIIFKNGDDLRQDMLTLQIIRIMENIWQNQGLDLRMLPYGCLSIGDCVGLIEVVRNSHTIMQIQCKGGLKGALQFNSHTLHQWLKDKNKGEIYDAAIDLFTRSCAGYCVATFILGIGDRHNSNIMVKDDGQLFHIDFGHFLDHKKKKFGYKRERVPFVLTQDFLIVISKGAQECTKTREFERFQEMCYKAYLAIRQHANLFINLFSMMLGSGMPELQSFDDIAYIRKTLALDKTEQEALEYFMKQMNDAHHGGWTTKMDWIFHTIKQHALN

**Q.** With Cc1c(Cn2c(C)nc(=O)c3sc(N4CCOCC4)nc32)cccc1C(F)(F)F as the molecule, how does the Activity [1] read?
**A.** Non-toxic

**Q.** And the IC50 [2]?
**A.** 0.02 µM

**Q.** What about the inhibition in vivo at 100 mg/kg [3] of the same molecule?
**A.** -17%

**Q.** And the inhibition in vivo at 300 mg/kg [4]?
**A.** 63%

**Q.** And the inhibition in vivo at 100 mg/kg [5]?
**A.** 33%

**Q.** What about the bioavailability [6] of the same molecule?
**A.** 49%

**Q.** And the AUC/dose [7]?
**A.** 278 ng/(hr.mL.mg.kg)

**Q.** What about the clearance [8] of the same molecule?
**A.** 29.6 mL/min/kg

**Q.** And the IC50 [9]?
**A.** 2.5 µM

**Q.** And the inhibition [10]?
**A.** tde

**Q.** And the EC50 [11]?
**A.** 0.024 µM

**Q.** What about the inhibition in vivo at 100 mg/kg [12] of the same molecule?
**A.** 63%

**Q.** What about the IC50 [13] of the same molecule?
**A.** 0.0006 µM

**Q.** And the inhibition in vivo at 300 mg/kg [14]?
**A.** 72%

**Q.** What about the inhibition in vivo at 100 mg/kg [15] of the same molecule?
**A.** 58%

**Q.** What about the inhibition in vivo at 100 mg/kg [16] of the same molecule?
**A.** 64%

**Q.** What about the inhibition in vivo at 300 mg/kg [17] of the same molecule?
**A.** 48%

**Q.** And the inhibition in vivo at 100 mg/kg [18]?
**A.** 46%

**Q.** What about the inhibition in vivo at 300 mg/kg [19] of the same molecule?
**A.** 64%

**Q.** What about the GI50 [20] of the same molecule?
**A.** 0.103 µM

**Q.** What about the Ratio [21] of the same molecule?
**A.** 1.2

**Q.** What about the half-life [22] of the same molecule?
**A.** 1.2 h

**Q.** And the inhibition in vivo at 300 mg/kg [23]?
**A.** 24%

**Q.** And the inhibition in vivo at 100 mg/kg [24]?
**A.** 53%

**Q.** And the Ratio [25]?
**A.** 1.2

**Q.** And the inhibition in vivo at 300 mg/kg [26]?
**A.** 68%

**Q.** And the inhibition in vivo at 300 mg/kg [27]?
**A.** -1%

**Q.** And the TGI [28]?
**A.** Active

**Q.** And the Vd [29]?
**A.** 2.8 L/kg

**Q.** And the IC50 [30]?
**A.** 0.79 µM
